The assay concerns pregnant sows. The experiment in a line: Drinking water treatment of pregnant sows with calcium chloride and phosphoric acid, perinatal phenomena. Type of assay: in vivo. On the procedure:
In another experiment, cations and anions were added to drinking water in such a balance, that the daily cation/anion balance of diet plus drinking water was reduced. For this, the drinking water contained 1.5 g calcium chloride per liter. […] In this experiment, next to the calcium chloride to reduce the daily cation/anion balance, a calcium binder (phosphoric acid, PhA)) was added in a concentration of 0.01 mol/liter.
It is believed that binding of dietary calcium in the gut and the inherent effect of reducing the amount of calcium available to the animal has as a consequence that the animal is triggered to mobilise calcium from its own mineral reserves in the bones. Therefore, when demand for calcium is increased as in parturition, the animal is more prepared to face this demand, and better equipped to maintain blood Ca levels.

Consider `O=P(O)(O)O` [PhA, phosphoric acid], for which, under “in vivo”, the Postnatal mortality is 9.4% and the “effect of addition of calcium binder on perinatal mortality” value was “no negative effect”. Moreover, for the setting “treated drinking water”, the “Piglets with colostrum intake <250 g/24 h” value came to 15.1%. For the setting “treated drinking water, calculated from weight gain”, the “Average colostrum intake per piglet” value is reported as 408 g/24 h.
